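Results reflect a 48-hour exposure of cells in 96-well plates to compound at five concentrations. Here, GI50 denotes the concentration required for 50% inhibition of growth.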 The source made the active and inactive calls. Rule as the data show it: active = GI50 up to about 1.1 µM and inactive = higher.
What was measured:
Test in all cases: NCI tumour cell line growth inhibition, 48 h
[1] = tested on: NCI-H522
[2] = tested on: NCI-H226
[3] = tested on: HL-60
[4] = tested on: KM-20L2
[5] = tested on: OVCAR-3
[6] = tested on: SF-539
[7] = tested on: HOP-92
[8] = tested on: EKVX
[9] = tested on: SF-295
[10] = tested on: HCT-116
[11] = tested on: SR
[12] = tested on: TK-10
[13] = tested on: CAKI-1
[14] = tested on: CCRF-CEM
[15] = tested on: OVCAR-5
[16] = tested on: HOP-62
[17] = tested on: SK-MEL-28
[18] = tested on: ACHN
[19] = tested on: RXF 393

SMILES	GI50 [1]	GI50 [2]	GI50 [3]	GI50 [4]	GI50 [5]	GI50 [6]	GI50 [7]	GI50 [8]	GI50 [9]	GI50 [10]	GI50 [11]	GI50 [12]	GI50 [13]	GI50 [14]	GI50 [15]	GI50 [16]	GI50 [17]	GI50 [18]	GI50 [19]
CN(C(=O)C12C3C4C5C3C1(C(=O)O)C5C42)C(C)(C)C (stereo not given)	> 100 µM (inactive)	> 100 µM (inactive)	17.1 µM (inactive)	> 100 µM (inactive)	> 100 µM (inactive)	> 100 µM (inactive)	> 100 µM (inactive)	> 100 µM (inactive)	> 100 µM (inactive)	34.2 µM (inactive)	> 100 µM (inactive)	> 100 µM (inactive)	> 100 µM (inactive)	76.6 µM (inactive)	> 100 µM (inactive)	> 100 µM (inactive)	> 100 µM (inactive)	> 100 µM (inactive)	
O=c1c(-c2ccccc2)c2oc(c1-c1ccccc1)CSCc1cccc(c1)CSC2	39.6 µM (inactive)	56.4 µM (inactive)	67.9 µM (inactive)	67.9 µM (inactive)	27.8 µM (inactive)	22.7 µM (inactive)	34.3 µM (inactive)	42.1 µM (inactive)	51.2 µM (inactive)	41.2 µM (inactive)		87.1 µM (inactive)	34.2 µM (inactive)	80 µM (inactive)	> 100 µM (inactive)	21.9 µM (inactive)	24 µM (inactive)	18.5 µM (inactive)	14.5 µM (inactive)
C[n+]1c2ccccc2c(CNCC(=O)O)c2ccccc21	0.137 µM (active)	3.3 µM (inactive)	0.187 µM (active)	0.327 µM (active)	1.87 µM (inactive)	2.12 µM (inactive)	0.929 µM (active)	2.56 µM (inactive)	5.07 µM (inactive)	0.39 µM (active)	0.238 µM (active)	0.708 µM (active)	0.406 µM (active)		15.2 µM (inactive)	6.27 µM (inactive)		0.61 µM (active)	2.38 µM (inactive)
COc1cccc(C2C(C(=O)Nc3cc(=O)n(C)c(=O)n3C)=C(C)NC(C)=C2C(=O)Nc2cc(=O)n(C)c(=O)n2C)c1O	> 100 µM (inactive)	> 100 µM (inactive)	> 100 µM (inactive)	> 100 µM (inactive)	> 100 µM (inactive)	> 100 µM (inactive)	> 100 µM (inactive)	> 100 µM (inactive)	> 100 µM (inactive)			> 100 µM (inactive)	> 100 µM (inactive)	86.7 µM (inactive)	> 100 µM (inactive)	> 100 µM (inactive)	> 100 µM (inactive)	> 100 µM (inactive)	> 100 µM (inactive)
NC1=NCC(c2ccccn2)C1c1ccc(F)cc1 (stereo not given)	> 100 µM (inactive)	> 100 µM (inactive)		> 100 µM (inactive)	> 100 µM (inactive)	> 100 µM (inactive)	> 100 µM (inactive)	> 100 µM (inactive)	> 100 µM (inactive)	> 100 µM (inactive)	> 100 µM (inactive)	> 100 µM (inactive)	> 100 µM (inactive)	> 100 µM (inactive)	> 100 µM (inactive)	> 100 µM (inactive)	> 100 µM (inactive)	> 100 µM (inactive)	> 100 µM (inactive)
Cc1ccc(S(=O)(=O)NC2(C=O)CCC(C(C)(C)C)CC2)cc1 (stereo not given)	24.3 µM (inactive)	> 100 µM (inactive)	20.1 µM (inactive)	28.8 µM (inactive)	24.5 µM (inactive)	44.6 µM (inactive)	30.7 µM (inactive)	38.1 µM (inactive)	31.3 µM (inactive)	23.8 µM (inactive)	15.2 µM (inactive)	33.8 µM (inactive)	> 100 µM (inactive)		79.3 µM (inactive)	> 100 µM (inactive)		32.5 µM (inactive)	27.3 µM (inactive)
COc1nc2c(c(O)c(C)c(=O)n2OC2OCC(OC(C)=O)C(OC(C)=O)C2OC(C)=O)c(=O)n1C (stereo not given)	91.8 µM (inactive)	> 100 µM (inactive)		> 100 µM (inactive)		60.4 µM (inactive)		> 100 µM (inactive)	> 100 µM (inactive)	> 100 µM (inactive)	> 100 µM (inactive)	> 100 µM (inactive)		> 100 µM (inactive)	> 100 µM (inactive)	> 100 µM (inactive)	> 100 µM (inactive)	> 100 µM (inactive)	> 100 µM (inactive)
C[N+](C)(C)CC(=O)N/N=C(/C=C/c1ccccc1)CC1OC(=O)c2ccccc21 (stereo not given)	> 100 µM (inactive)	> 100 µM (inactive)	> 100 µM (inactive)	> 100 µM (inactive)		> 100 µM (inactive)	> 10 µM (inactive)	> 100 µM (inactive)	> 10 µM (inactive)	> 100 µM (inactive)		> 100 µM (inactive)	> 100 µM (inactive)	> 100 µM (inactive)	> 10 µM (inactive)	> 100 µM (inactive)	> 100 µM (inactive)	> 100 µM (inactive)	> 100 µM (inactive)
O=c1[nH]cc(F)c(=O)n1C1OC(CO)C(O)C1O (stereo not given)	> 100 µM (inactive)	> 100 µM (inactive)	> 100 µM (inactive)	> 100 µM (inactive)	> 100 µM (inactive)		> 100 µM (inactive)	> 100 µM (inactive)	> 100 µM (inactive)			> 100 µM (inactive)	> 100 µM (inactive)	> 100 µM (inactive)	> 100 µM (inactive)	> 100 µM (inactive)	> 100 µM (inactive)	> 100 µM (inactive)	> 100 µM (inactive)
CCOc1ccc2c(c1)[n+]([O-])c(C(N)=O)c(N)[n+]2[O-]	> 100 µM (inactive)	> 100 µM (inactive)	> 100 µM (inactive)	> 100 µM (inactive)	> 100 µM (inactive)	> 100 µM (inactive)	> 100 µM (inactive)	> 100 µM (inactive)	> 100 µM (inactive)	> 100 µM (inactive)	> 100 µM (inactive)		> 100 µM (inactive)	94 µM (inactive)	> 100 µM (inactive)	> 100 µM (inactive)	> 100 µM (inactive)	> 100 µM (inactive)	> 100 µM (inactive)
Cc1ccccc1C(C#N)/C(=N/NC(=O)c1cc2ccccc2cc1O)C(=O)Nc1cccc(Cl)c1 (stereo not given)	20.9 µM (inactive)	18.5 µM (inactive)	3.72 µM (inactive)	31.1 µM (inactive)	5.42 µM (inactive)	26.4 µM (inactive)	26.4 µM (inactive)	28.8 µM (inactive)	21.1 µM (inactive)	14.5 µM (inactive)	12.6 µM (inactive)	45.7 µM (inactive)	19.8 µM (inactive)	4.36 µM (inactive)	13.4 µM (inactive)	27.5 µM (inactive)	25.1 µM (inactive)	16.4 µM (inactive)	
Nc1nc2c(ncn2CCCC(c2ccccc2)P(=O)(O)O)c(=O)[nH]1 (stereo not given)	> 100 µM (inactive)		> 100 µM (inactive)	> 100 µM (inactive)	> 100 µM (inactive)	> 100 µM (inactive)	91.8 µM (inactive)	> 100 µM (inactive)	> 100 µM (inactive)	> 100 µM (inactive)		> 100 µM (inactive)	> 100 µM (inactive)	> 100 µM (inactive)	> 100 µM (inactive)	> 100 µM (inactive)	> 100 µM (inactive)	> 100 µM (inactive)	
O=C1C(N2C(=O)c3ccccc3C2=O)CN1C(COCc1ccccc1)c1ccc(OCc2ccccc2)cc1 (stereo not given)	> 100 µM (inactive)	> 100 µM (inactive)	> 100 µM (inactive)	> 100 µM (inactive)	> 100 µM (inactive)	> 100 µM (inactive)	> 100 µM (inactive)	> 100 µM (inactive)	> 100 µM (inactive)	> 100 µM (inactive)	> 100 µM (inactive)	> 100 µM (inactive)	> 100 µM (inactive)	> 100 µM (inactive)	> 100 µM (inactive)	> 100 µM (inactive)	> 100 µM (inactive)	> 100 µM (inactive)	> 100 µM (inactive)
COc1ccc(-c2nc3c(nc2-c2ccc(OC)cc2)N(C)S(=O)(=O)N=C3N)cc1	9.59 µM (inactive)		15.9 µM (inactive)	40.6 µM (inactive)	14 µM (inactive)	18.3 µM (inactive)	13.6 µM (inactive)		22.3 µM (inactive)	15 µM (inactive)	9.89 µM (inactive)	28.1 µM (inactive)	23.2 µM (inactive)	23.1 µM (inactive)	25.2 µM (inactive)	33.6 µM (inactive)	32.1 µM (inactive)	19.1 µM (inactive)	10.9 µM (inactive)
COc1c(OC2OC(CO)C(O)C(O)C2O)cc2c(c1OC)-c1ccc(OC)c(=O)cc1[C@@H](NC(C)=O)CC2 (stereo not given in full)	43.8 µM (inactive)	> 100 µM (inactive)	> 70.8 µM (inactive)	> 100 µM (inactive)	39.5 µM (inactive)	64.9 µM (inactive)	45.3 µM (inactive)	> 100 µM (inactive)	> 89.7 µM (inactive)	> 100 µM (inactive)	> 100 µM (inactive)	> 100 µM (inactive)	> 100 µM (inactive)	65.2 µM (inactive)	> 100 µM (inactive)	> 100 µM (inactive)	59.4 µM (inactive)	> 100 µM (inactive)	57.4 µM (inactive)
